From PMC8998031, “A Boronated Derivative of Temozolomide Showing Enhanced Efficacy in Boron Neutron Capture Therapy of Glioblastoma” (Cells, 2022)

How the values were obtained:
HS683 cells [1] = assay: CCK8 cell proliferation assay; type: cell-based, Human; conditions: read-out: IC50 (cell viability, CCK8)
Method: Cell proliferation was measured with a CCK8 assay following the manufacturer’s protocol (Dojindo Molecular Technologies, Inc., Kumamoto, Japan). The IC50 was calculated using Prism software using the following algorithm: Cell Viability=100/1+10^(LogIC50−Concentration)×Hillslope

HS683 cells [2] = assay: Clonogenic cell survival assay without BNCT; type: cell-based, Human
HS683 cells [3] = assay: Clonogenic cell survival assay with BNCT (neutron irradiation); type: cell-based, Human; conditions: total neutron fluence 2.4 ± 0.3 × 10^11 n/cm^2
Method: HS683 cells were prepared in a 200 μL centrifuge tube and treated with BPA or TMZB at gradient concentrations in 0.0–1.0 μg/mL for 30 min. Cells were irradiated with epithermal neutrons for approximately 30 min to achieve total neutron fluence at 2.4 ± 0.3 × 10^11 n/cm^2. After radiation, the drug-containing medium was removed, and cells were incubated in fresh medium for 12 h. A certain number of cells in a single-cell suspension were seeded into 6-well plates to grow colonies. After 2 weeks of incubation, colonies were fixed with 70% ethanol at room temperature for 10 min, stained with 0.1% crystal violet, and then dried overnight. Colonies with more than 50 cells were scored as clonogenic survivors under a bright field microscope.

HS683 GBM mouse model = assay: In vivo BNCT test, PET/CT imaging with 18F-FDG; set-up: species or system nude mice
Method: (§1) Single-cell suspension with HS683 cells was prepared at 2 × 10^7 cells/mL. Nude mice were anesthetized with an intraperitoneal injection of tribromoethanol at a dose of 150 mg/kg and positioned in a stereotaxic instrument. After disinfection with 75% alcohol, the scalp was cut open with a scalpel, the bregma point was selected, and a hole was made in the mouse skull using a 1 mm cranial drill. Then, 5 μL of cell suspension was taken using a micro-injector, which was then fixed on the brain with a needle depth at 3.0 mm using a stereotaxic instrument. Three minutes later, the micro-injector was lifted by 0.5 mm to make rooms for the injection of cells at 1 μL/min. After removing the needle, the drill hole in the mice skull was then filled with bone wax, the skin incision was sutured, and the wound was disinfected with iodophor. The GBM model was established approximately 28 days after cell injection.
PET/CT imaging with 1.5 uCi/g ^18F-FDG was performed for all the mice anesthetized with 2% isoflurane at 25 °C before BNCT. Mice were anesthetized with an intraperitoneal injection of tribromoethanol at a dose of 150 mg/kg. The mice were then injected i.v. with 50 mg ^10B/kg of BPA (5% fructose solution) or the TMZB solution at 50 mg ^10B/kg or TMZ at 600 mg/kg through the tail vein. Then, 90 min later, mice were fixed in the mold and anesthetized for BNCT. Mice heads were treated with 2 kw of neutron fluence for 2 h each time and 4 times for each mouse with 2 days interval in between, to achieve a total neutron fluence of 16.5 ± 0.3 × 10^11 n/cm^2. Boron compounds were injected prior to each of the radiation fractions. PET/CT imaging was performed again 31 days after BNCT. Three-dimensional reconstructions of the PET/CT images were performed using AMIDE (Stanford University, Stanford, CA, USA). ROI, SUV values, and tumor volume were then analyzed.

[4] = In vivo boron distribution in GBM mouse model (ICP-AES); set-up: species or system nude mice; conditions: 50 mg 10B/kg
Method: as §1
TMZB (molecular weight, 412.21) and BPA (209.01; obtained from HEC Pharm, Dongguan, China) were made into 0.0–1.0 mg/g aqueous solutions. GBM cells and HUV-EC cells were treated with different concentrations of TMZB or BPA solutions. The drug-containing medium was removed 12 h later. […] Eight nude mice in each group were injected with 500 mg/kg of BPA, TMZ, or TMZB through the tail vein of the nude mice, in a 3,5-tetrazine-8-methoxy-4-phenylboronic acid-ethyl ester solution. […] Cells or tissues were digested with concentrated nitric acid for the analysis of boron concentration via ICP-AES.

U251 cells = assay: Boron uptake in U251 cells (ICP-AES); type: cell-based, Human; conditions: exposure of 1.99 mM BPA, 12 h
Method: (§2) Human GBM cells U87MG, U251, and HS683 and endothelial cell HUV-EC were obtained from the National Infrastructure of Cell Line Resource in Beijing, China. Cell lines were authenticated at the National Infrastructure of Cell Line Resource, Beijing, China. GBM cells were cultured in a DMEM medium containing 10% fetal bovine serum and 1% penicillin/streptomycin at 5% CO2 and 37 °C. HUV-EC cells were cultured in complete culture medium (Procell Life Science & Technology Co., Ltd., Wuhan, China). Cells were tested mycoplasma free using a Mycoplasma Test Kit (Cellorlab, China). All materials for cell culture were purchased from Gibco Invitrogen (Grand Island, NY, USA) unless otherwise noted.
(§3) TMZB (molecular weight, 412.21) and BPA (209.01; obtained from HEC Pharm, Dongguan, China) were made into 0.0–1.0 mg/g aqueous solutions. GBM cells and HUV-EC cells were treated with different concentrations of TMZB or BPA solutions. The drug-containing medium was removed 12 h later. The biodistribution of boron in TMZB- or BPA-treated mice was measured at the timepoint for neutron irradiation, i.e., 2 h after drug injection. Eight nude mice in each group were injected with 500 mg/kg of BPA, TMZ, or TMZB through the tail vein of the nude mice, in a 3,5-tetrazine-8-methoxy-4-phenylboronic acid-ethyl ester solution. […]

HS683 cells [5] = assay: Boron uptake in HS683 cells (ICP-AES); type: cell-based, Human; conditions: series of concentrations, 12 h
Method: as §2, §3

## N[C@@H](Cc1ccc(B(O)O)cc1)C(=O)O [BPA, boronated phenylalanine]
HS683 cells [1]; without BNCT
  IC50: 1110 µM
HS683 cells [2]
  IC50: 2310 µM

## N[C@@H](Cc1ccc([10B](O)O)cc1)C(=O)O [BPA, boronated phenylalanine]
HS683 cells [3]; HS683, 0.239 mM BPA
  clonogenic cell death after BNCT: 63.7% ± 6.3
HS683 GBM mouse model; 31 days after BNCT, 50 mg 10B/kg, 18F-FDG PET/CT
  SUV max after BNCT: significantly reduced
HS683 GBM mouse model; 31 days after BNCT, compared with TMZ-treated group
  18F-FDG uptake in tumors after BNCT: significantly lower than that in the TMZ-treated group
HS683 GBM mouse model; 31 days after neutron irradiation, 50 mg 10B/kg i.v., total neutron fluence 16.5 ± 0.3 × 10^11 n/cm^2, PET/CT
  tumor volume decrease (tumor shrinkage) after BNCT: 35.2%
[4]; 2 h after administration
  tissue of main boron accumulation: mainly accumulates in the kidney
[4]; 2 h after i.v. administration
  boron concentration in mice tumors: 16.93 ± 9.75 μg B/g
[4]; 6 h after i.v. administration
  boron concentration in mice tumors: 5.07 ± 1.43 μg B/g
[4]; GBM mouse model
  tumor-to-blood ratio (T/B) of boron concentrations: 2.26 ± 1.56
  tumor-to-normal brain ratio (T/N) of boron concentrations: 2.61 ± 1.98
U251 cells
  boron uptake: 0.126 μg/10^6 cells
HS683 cells [5]
  boron uptake (in words): low uptake

## Cn1nnc2c(C(N)=O)ncn2c1=O [TMZ, temozolomide]
HS683 cells [3]; HS683, 0.258 mM TMZ
  clonogenic cell death after BNCT: 47.9% ± 6.6
HS683 cells [1]; Homo sapiens, Hs 683, without BNCT
  IC50: 284 µM
HS683 cells [2]; Homo sapiens, Hs 683
  IC50: 213 µM
